The text below walks through data of the supplement of paper PMC10307832.

Holding throughout (experiment): relative viability (nuclei count vs DMSO), 5 days (fraction); higher = more cells survive
Compound in the assay “VX-702 + Navitoclax”: NC(=O)c1ccc(N(C(N)=O)c2c(F)cccc2F)nc1-c1ccc(F)cc1F [VX-702] + CC1(C)CCC(c2ccc(Cl)cc2)=C(CN2CCN(c3ccc(C(=O)NS(=O)(=O)c4ccc(N[C@H](CCN5CCOCC5)CSc5ccccc5)c(S(=O)(=O)C(F)(F)F)c4)cc3)CC2)C1 [Navitoclax] (partner 0.5 µM)
A digest of the protocol: (§1)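 Values are medians from duplicate plates. Each reflects relative viability, defined as the nuclei count of treated wells over that of vehicle wells. Lung cancer cell lines in 1536-well plates were pin-tool dosed one day after seeding with one drug alone or with a fixed anchor-drug dose plus five library-drug doses (not always all listed) in √10 steps, then fixed, stained and imaged at 4× after 5 days.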

Compound in the assay “Dabrafenib + Crizotinib”: CC(C)(C)c1nc(-c2cccc(NS(=O)(=O)c3c(F)cccc3F)c2F)c(-c2ccnc(N)n2)s1 [Dabrafenib] + C[C@@H](Oc1cc(-c2cnn(C3CCNCC3)c2)cnc1N)c1c(Cl)ccc(F)c1Cl [Crizotinib] (partner 1 µM)
A digest of the protocol: as §1

Compound in the assay “VX-702 + Luminespib”: NC(=O)c1ccc(N(C(N)=O)c2c(F)cccc2F)nc1-c1ccc(F)cc1F [VX-702] + CCNC(=O)c1noc(-c2cc(C(C)C)c(O)cc2O)c1-c1ccc(CN2CCOCC2)cc1 [Luminespib] (partner 0.01 µM)
The method in brief:
as §1

Compound in the assay “VX-702 + Dasatinib”: NC(=O)c1ccc(N(C(N)=O)c2c(F)cccc2F)nc1-c1ccc(F)cc1F [VX-702] + Cc1nc(Nc2ncc(C(=O)Nc3c(C)cccc3Cl)s2)cc(N2CCN(CCO)CC2)n1 [Dasatinib] (partner 0.075 µM)
A digest of the protocol:
as §1

In the case of EBC-1, the relative viability with VX-702 + Navitoclax (first compound 0.02 µM) was determined as 0.441; with VX-702 + Navitoclax (first compound 0.2 µM) it was 0.413; with VX-702 + Navitoclax (first compound 0.6325 µM) it was 0.337; with VX-702 + Navitoclax (first compound 2 µM), 0.389; with Dabrafenib + Crizotinib (first compound 0.009487 µM), 0.193; with Dabrafenib + Crizotinib (first compound 0.03 µM), 0.207. In addition, the relative viability came out at 0.196 with Dabrafenib + Crizotinib (first compound 0.09487 µM) and 0.245 in the assay with Dabrafenib + Crizotinib (first compound 0.3 µM).

For the cell line NCI-H1395, the relative viability with VX-702 + Luminespib (first compound 0.02 µM) was found to be 0.634; in the assay with VX-702 + Luminespib (first compound 0.2 µM), 0.592; in the assay with VX-702 + Luminespib (first compound 0.6325 µM), 0.892; in the assay with VX-702 + Luminespib (first compound 2 µM), 0.712; with VX-702 + Navitoclax (first compound 0.02 µM), 1.48; in the assay with VX-702 + Navitoclax (first compound 0.2 µM), 1.05. Moreover, the relative viability came out at 1.02 with VX-702 + Navitoclax (first compound 0.6325 µM); 1.37 with VX-702 + Navitoclax (first compound 2 µM); 0.414 with VX-702 + Dasatinib (first compound 0.02 µM); 0.413 with VX-702 + Dasatinib (first compound 0.2 µM); 0.415 with VX-702 + Dasatinib (first compound 0.6325 µM); 0.447 with VX-702 + Dasatinib (first compound 2 µM).

For the cell line NCI-H522, the relative viability with VX-702 + Luminespib (first compound 0.02 µM) came out at 0.868; with VX-702 + Luminespib (first compound 0.2 µM) it was 1.11; in the assay with VX-702 + Luminespib (first compound 0.6325 µM) it was 1.26; with VX-702 + Luminespib (first compound 2 µM), 1.2; with VX-702 + Dasatinib (first compound 0.02 µM) it was 0.978; in the assay with VX-702 + Dasatinib (first compound 0.2 µM), 0.7. The relative viability is 0.83 with VX-702 + Dasatinib (first compound 0.6325 µM) and 0.984 with VX-702 + Dasatinib (first compound 2 µM).

Consider HCC-78, for which the relative viability came to 0.673 with VX-702 + Navitoclax (first compound 0.02 µM); 0.772 with VX-702 + Navitoclax (first compound 0.2 µM); 0.806 with VX-702 + Navitoclax (first compound 0.6325 µM); 0.852 with VX-702 + Navitoclax (first compound 2 µM); 0.449 with VX-702 + Dasatinib (first compound 0.02 µM); 0.338 with VX-702 + Dasatinib (first compound 0.2 µM). Moreover, the relative viability with VX-702 + Dasatinib (first compound 0.6325 µM) amounted to 0.351; with VX-702 + Dasatinib (first compound 2 µM), 0.356; with Dabrafenib + Crizotinib (first compound 0.009487 µM), 0.403; with Dabrafenib + Crizotinib (first compound 0.03 µM), 0.278; with Dabrafenib + Crizotinib (first compound 0.09487 µM) it was 0.329; with Dabrafenib + Crizotinib (first compound 0.3 µM) it was 0.362.

On to HCC-44, for which the relative viability with VX-702 + Luminespib (first compound 0.02 µM) is 0.84; with VX-702 + Luminespib (first compound 0.2 µM), 0.983; with VX-702 + Luminespib (first compound 0.6325 µM) it was 0.909; with VX-702 + Luminespib (first compound 2 µM), 1.48; with VX-702 + Navitoclax (first compound 0.02 µM), 0.93; with VX-702 + Navitoclax (first compound 0.2 µM) it was 0.99. Further, the relative viability came out at 0.881 with VX-702 + Navitoclax (first compound 0.6325 µM); 1.09 in the assay with VX-702 + Navitoclax (first compound 2 µM); 0.769 in the assay with Dabrafenib + Crizotinib (first compound 0.003 µM); 0.785 with Dabrafenib + Crizotinib (first compound 0.009487 µM); 0.847 in the assay with Dabrafenib + Crizotinib (first compound 0.03 µM); 0.718 in the assay with Dabrafenib + Crizotinib (first compound 0.09487 µM). Moreover, the relative viability in the assay with Dabrafenib + Crizotinib (first compound 0.3 µM) was 0.794.

Calu-6: the relative viability in the assay with VX-702 + Navitoclax (first compound 0.02 µM) was found to be 0.927; with VX-702 + Navitoclax (first compound 0.2 µM) it was 0.811; with VX-702 + Navitoclax (first compound 0.6325 µM) it was 1.01; with VX-702 + Navitoclax (first compound 2 µM) it was 1.01; with Dabrafenib + Crizotinib (first compound 0.003 µM) it was 0.681; in the assay with Dabrafenib + Crizotinib (first compound 0.009487 µM) it was 0.833. The relative viability in the assay with Dabrafenib + Crizotinib (first compound 0.03 µM) came to 0.786; with Dabrafenib + Crizotinib (first compound 0.09487 µM), 0.555; with Dabrafenib + Crizotinib (first compound 0.3 µM), 0.577.

In the case of LCLC-103H, the relative viability with VX-702 + Luminespib (first compound 0.02 µM) is 0.975; in the assay with VX-702 + Luminespib (first compound 0.2 µM), 0.888; in the assay with VX-702 + Luminespib (first compound 0.6325 µM), 1; in the assay with VX-702 + Luminespib (first compound 2 µM), 0.986; in the assay with VX-702 + Dasatinib (first compound 0.02 µM), 0.487; with VX-702 + Dasatinib (first compound 0.2 µM), 0.403. Moreover, the relative viability worked out at 0.504 with VX-702 + Dasatinib (first compound 0.6325 µM); 0.507 with VX-702 + Dasatinib (first compound 2 µM); 1 with Dabrafenib + Crizotinib (first compound 0.003 µM); 1.13 with Dabrafenib + Crizotinib (first compound 0.009487 µM); 0.935 with Dabrafenib + Crizotinib (first compound 0.03 µM); 1.17 with Dabrafenib + Crizotinib (first compound 0.09487 µM). Further, the relative viability with Dabrafenib + Crizotinib (first compound 0.3 µM) came to 1.06.

As to NCI-H2342, the relative viability was found to be 0.66 with VX-702 + Luminespib (first compound 0.02 µM); 0.848 with VX-702 + Luminespib (first compound 0.2 µM); 0.72 in the assay with VX-702 + Luminespib (first compound 0.6325 µM); 0.821 in the assay with VX-702 + Luminespib (first compound 2 µM); 0.327 with VX-702 + Dasatinib (first compound 0.02 µM); 0.335 with VX-702 + Dasatinib (first compound 0.2 µM). For the same cell line, the relative viability with VX-702 + Dasatinib (first compound 0.6325 µM) is 0.348; with VX-702 + Dasatinib (first compound 2 µM), 0.329.

For the cell line ABC-1, the relative viability was found to be 0.518 with VX-702 + Luminespib (first compound 0.02 µM); 0.48 with VX-702 + Luminespib (first compound 0.2 µM); 0.567 with VX-702 + Luminespib (first compound 0.6325 µM); 0.894 in the assay with VX-702 + Luminespib (first compound 2 µM); 0.666 in the assay with VX-702 + Dasatinib (first compound 0.02 µM); 0.535 with VX-702 + Dasatinib (first compound 0.2 µM). Besides, the relative viability with VX-702 + Dasatinib (first compound 0.6325 µM) is 0.573; with VX-702 + Dasatinib (first compound 2 µM), 0.562; with Dabrafenib + Crizotinib (first compound 0.009487 µM) it was 1.11; with Dabrafenib + Crizotinib (first compound 0.03 µM), 1.02; in the assay with Dabrafenib + Crizotinib (first compound 0.09487 µM), 0.961; with Dabrafenib + Crizotinib (first compound 0.3 µM) it was 1.34.

Consider NCI-H1703, for which the relative viability came out at 1.01 with VX-702 + Navitoclax (first compound 0.02 µM); 1.35 with VX-702 + Navitoclax (first compound 0.2 µM); 1.08 in the assay with VX-702 + Navitoclax (first compound 0.6325 µM); 1.47 with VX-702 + Navitoclax (first compound 2 µM); 1.09 in the assay with Dabrafenib + Crizotinib (first compound 0.003 µM); 0.76 with Dabrafenib + Crizotinib (first compound 0.009487 µM). In addition, the figures for the relative viability in the assay with Dabrafenib + Crizotinib (first compound 0.03 µM), with Dabrafenib + Crizotinib (first compound 0.09487 µM) and with Dabrafenib + Crizotinib (first compound 0.3 µM) were 0.584, 0.609 and 0.729, respectively.

As for NCI-H1793, the relative viability in the assay with VX-702 + Luminespib (first compound 0.02 µM) is 0.165; with VX-702 + Luminespib (first compound 0.2 µM), 0.217; in the assay with VX-702 + Luminespib (first compound 0.6325 µM), 0.213; in the assay with VX-702 + Luminespib (first compound 2 µM), 0.192; with VX-702 + Navitoclax (first compound 0.02 µM), 0.601; with VX-702 + Navitoclax (first compound 0.2 µM) it was 0.405. In addition, the relative viability with VX-702 + Navitoclax (first compound 0.6325 µM) came out at 0.497; with VX-702 + Navitoclax (first compound 2 µM) it was 0.542; with VX-702 + Dasatinib (first compound 0.02 µM), 0.412; with VX-702 + Dasatinib (first compound 0.2 µM), 0.392; in the assay with VX-702 + Dasatinib (first compound 0.6325 µM) it was 0.382; with VX-702 + Dasatinib (first compound 2 µM), 0.366.

Turning to NCI-H358, the relative viability was 0.245 with VX-702 + Luminespib (first compound 0.02 µM); 0.416 with VX-702 + Luminespib (first compound 0.2 µM); 0.583 with VX-702 + Luminespib (first compound 0.6325 µM); 0.4 with VX-702 + Luminespib (first compound 2 µM); 0.146 with VX-702 + Dasatinib (first compound 0.02 µM); 0.144 in the assay with VX-702 + Dasatinib (first compound 0.2 µM). The relative viability in the assay with VX-702 + Dasatinib (first compound 0.6325 µM) was 0.156; with VX-702 + Dasatinib (first compound 2 µM), 0.16; with Dabrafenib + Crizotinib (first compound 0.009487 µM) it was 0.662; in the assay with Dabrafenib + Crizotinib (first compound 0.03 µM), 0.553; with Dabrafenib + Crizotinib (first compound 0.09487 µM), 0.631; with Dabrafenib + Crizotinib (first compound 0.3 µM), 0.476.

With NCI-H1623, the relative viability with VX-702 + Luminespib (first compound 0.02 µM) came out at 0.469; in the assay with VX-702 + Luminespib (first compound 0.2 µM), 0.496; with VX-702 + Luminespib (first compound 0.6325 µM), 0.477; with VX-702 + Luminespib (first compound 2 µM), 0.465; with VX-702 + Dasatinib (first compound 0.02 µM), 0.515; in the assay with VX-702 + Dasatinib (first compound 0.2 µM), 0.453. Besides, the relative viability in the assay with VX-702 + Dasatinib (first compound 0.6325 µM) was found to be 0.422; with VX-702 + Dasatinib (first compound 2 µM), 0.5.
